The record followed here is article PMC6934184, “Selective DNA-PKcs inhibition extends the therapeutic index of localized radiotherapy and chemotherapy” (The Journal of Clinical Investigation, 2019).

The test has as its target T1, CASK (Homo sapiens, UniProt O14936).
T1 construct: purchased Thermo Fisher Scientific (Life Technologies) SelectScreen
The test can be described thus: SelectScreen LanthaScreen. The test is classed as binding. As to conditions: read-out: % displacement. The gist of the method:
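NU5455 was profiled across the SelectScreen Broad panel of kinase activity and binding assays. Z'LYTE reactions such as CSF1R ran at apparent Km ATP, while the Adapta CAMK1 assay used ATP listed as 10. Values are given as percent.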
(In general: In TR-FRET formats the signal depends on donor and acceptor labels being close together.)

T1 sequence (O14936 whole entry): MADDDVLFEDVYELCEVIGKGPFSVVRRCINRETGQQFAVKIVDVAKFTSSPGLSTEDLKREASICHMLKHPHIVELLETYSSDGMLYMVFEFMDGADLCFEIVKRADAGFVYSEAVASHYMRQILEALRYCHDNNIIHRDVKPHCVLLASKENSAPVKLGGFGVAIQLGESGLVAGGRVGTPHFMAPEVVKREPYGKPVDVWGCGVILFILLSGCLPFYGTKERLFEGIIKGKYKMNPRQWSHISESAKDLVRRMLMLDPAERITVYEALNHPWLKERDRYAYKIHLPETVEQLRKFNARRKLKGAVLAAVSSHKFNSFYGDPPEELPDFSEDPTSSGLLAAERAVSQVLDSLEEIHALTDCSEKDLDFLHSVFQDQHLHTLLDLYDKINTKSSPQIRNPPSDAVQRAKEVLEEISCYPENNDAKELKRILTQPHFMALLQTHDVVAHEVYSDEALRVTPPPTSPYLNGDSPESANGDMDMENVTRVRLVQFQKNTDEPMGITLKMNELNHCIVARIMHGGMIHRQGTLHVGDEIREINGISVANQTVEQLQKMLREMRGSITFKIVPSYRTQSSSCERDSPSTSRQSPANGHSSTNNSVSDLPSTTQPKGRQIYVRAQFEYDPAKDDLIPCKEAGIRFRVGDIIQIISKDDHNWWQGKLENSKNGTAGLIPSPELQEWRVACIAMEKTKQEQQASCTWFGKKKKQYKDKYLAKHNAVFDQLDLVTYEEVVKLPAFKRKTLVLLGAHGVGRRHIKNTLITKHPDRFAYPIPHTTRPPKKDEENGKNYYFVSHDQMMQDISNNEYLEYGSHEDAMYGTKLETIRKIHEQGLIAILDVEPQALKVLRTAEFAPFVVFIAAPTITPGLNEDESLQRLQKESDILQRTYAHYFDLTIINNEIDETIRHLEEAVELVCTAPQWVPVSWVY

As for `CN(C(=O)CN1CCOCC1)c1ccc2sc3c(-c4cccc5c(=O)cc(N6CC7CCC(C6)O7)oc45)cccc3c2c1` [NU5455], the inhibition at 1 µM is -3.1%.
